From the supplement of paper PMC10307832

How the values were obtained:
Assay in all cases: relative viability (nuclei count vs DMSO), 5 days (fraction); higher = more cells survive
[1] = compound: C1COCCN1C2=NC(=NC3=C2OC4=C3C=CC=N4)C5=CC(=CC=C5)NC(=O)C6=CN=C(C=C6)N
How it was run: (§1)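 Lung cancer cell lines in 1536-well plates were kept overnight at 37 °C, then pinned with five library-drug doses (not always all listed) spaced by √10 on vehicle-anchored plates. After 5 days without medium change, cells were fixed, permeabilised and Hoechst-stained in one step, imaged at 4×, and nuclei were counted with MetaXpress. Viability is treated-well nuclei divided by vehicle-well nuclei, taken as the median over plates. Plates passed only with control CV below 25% and at least one doubling.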

SGI-1776 = compound: CN1CCC(CNc2ccc3ncc(-c4cccc(OC(F)(F)F)c4)n3n2)CC1 [SGI-1776]
How it was run: as §1

Entinostat = compound: Nc1ccccc1NC(=O)c1ccc(CNC(=O)OCc2cccnc2)cc1 [Entinostat]
How it was run: as §1

Entinostat + Foretinib = compound: Nc1ccccc1NC(=O)c1ccc(CNC(=O)OCc2cccnc2)cc1 [Entinostat] + COc1cc2c(Oc3ccc(NC(=O)C4(C(=O)Nc5ccc(F)cc5)CC4)cc3F)ccnc2cc1OCCCN1CCOCC1 [Foretinib] (partner 0.25 µM)
How it was run: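 Relative viability is defined as nuclei in treated wells over nuclei in vehicle wells. Duplicate plates were run and medians reported. Lung cancer cell lines in 1536-well plates were dosed by pin tool one day after seeding, with one drug or with a fixed anchor-drug dose plus five library-drug doses (not always all listed) in √10 steps, and nuclei were counted after 5 days.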

| Cell Line | relative viability ([1]; 0.02 µM) | relative viability ([1]; 0.06325 µM) | relative viability ([1]; 0.2 µM) | relative viability ([1]; 0.6325 µM) | relative viability ([1]; 2 µM) | relative viability (SGI-1776; 0.08 µM) | relative viability (SGI-1776; 0.8 µM) | relative viability (SGI-1776; 2.53 µM) | relative viability (SGI-1776; 8 µM) | relative viability (Entinostat; 0.02 µM) | relative viability (Entinostat; 0.06325 µM) | relative viability (Entinostat; 0.2 µM) | relative viability (Entinostat; 0.6325 µM) | relative viability (Entinostat; 2 µM) | relative viability (Entinostat + Foretinib; first compound 0.02 µM) | relative viability (Entinostat + Foretinib; first compound 0.06325 µM) | relative viability (Entinostat + Foretinib; first compound 0.2 µM) | relative viability (Entinostat + Foretinib; first compound 0.6325 µM) | relative viability (Entinostat + Foretinib; first compound 2 µM) |
| --- | --- | --- | --- | --- | --- | --- | --- | --- | --- | --- | --- | --- | --- | --- | --- | --- | --- | --- | --- |
| SK-MES-1 | 1.02 | 1.08 | 0.925 | 0.868 | 0.673 | 1.06 | 1.07 | 1 | 0.868 | 1.01 | 1.15 | 1.19 | 1.02 | 0.701 | 1.08 | 1.09 | 1.15 | 0.96 | 0.712 |
| NCI-H1793 | 0.822 | 1.01 | 0.793 | 0.876 | 0.644 | 0.815 | 1.31 | 0.931 | 0.783 | 1.03 | 1.03 | 0.966 | 0.488 | 0.405 | 0.678 | 0.753 | 0.782 | 0.472 | 0.326 |
| LC-2-ad | 0.965 | 1.06 | 0.937 | 0.932 | 0.788 | 0.984 | 1.05 | 1.09 | 0.815 | 1.02 | 0.972 | 0.942 | 0.48 | 0.315 | 0.907 | 0.905 | 0.723 | 0.512 | 0.338 |
| NCI-H3122 | 1.03 | 1.01 | 1.01 | 1.05 | 0.862 | 1.03 | 0.99 | 1.04 | 1.05 | 1 | 1.03 | 1.02 | 0.959 | 0.677 | 0.992 | 0.995 | 0.999 | 0.973 | 0.776 |
| A549 | 1.05 | 1.1 | 0.97 | 0.991 | 0.471 | 0.992 | 1.01 | 0.959 | 0.795 | 1.02 | 1.03 | 0.901 | 0.842 | 0.508 | 1.01 | 0.942 | 0.878 | 0.757 | 0.288 |
| LCLC-97TM1 | 1.03 | 0.99 | 0.994 | 1.1 | 0.905 | 1.01 | 1.03 | 1.11 | 1.01 | 1.1 | 1.11 | 1.02 | 0.732 | 0.702 | 1.05 | 0.934 | 1 | 0.995 | 0.844 |
| NCI-H520 | 0.857 | 1.12 | 1.05 | 0.921 | 0.659 | 0.998 | 1.18 | 1 | 0.832 | 1 | 1.07 | 0.934 | 0.9 | 0.792 | 0.686 | 0.941 | 0.803 | 0.683 | 0.626 |
| NCI-H358 | 0.864 | 1.09 | 0.871 | 0.832 | 0.625 | 0.986 | 0.957 | 0.897 | 0.512 | 1.09 | 1.17 | 0.934 | 0.641 | 0.255 | 0.755 | 0.81 | 0.66 | 0.41 | 0.124 |
| NCI-H1755 | 0.997 | 1.06 | 0.999 | 0.956 | 0.841 | 0.954 | 0.993 | 0.945 | 0.819 | 0.98 | 0.94 | 0.927 | 0.665 | 0.467 | 0.901 | 0.864 | 0.805 | 0.713 | 0.421 |
| EPLC-272H | 0.907 | 0.987 | 0.889 | 0.715 | 0.717 | 1.05 | 1.1 | 1.29 | 0.766 | 0.985 | 0.91 | 0.883 | 0.406 | 0.296 | 0.684 | 0.783 | 0.512 | 0.243 | 0.223 |
| NCI-H2228 | 0.899 | 1.16 | 1.01 | 0.92 | 0.418 | 0.966 | 1.02 | 0.808 | 0.71 | 0.852 | 1.01 | 0.944 | 0.625 | 0.359 | 0.994 | 0.787 | 0.914 | 0.526 | 0.288 |
